From US20260206761A1, “HETEROARYL-TRIAZOLE COMPOUNDS AS PESTICIDES” (Bayer Aktiengesellschaft, priority 2019, published 2026) come the findings set out here.

Holding throughout (assay type): in vivo
In assay [1] the test system is Rhipicephalus microplus larvae (strain Parkhurst, resistant against synthetic pyrethroids). Nature of the assay: Rhipicephalus (Boophilus) microplus in-vitro contact test, larval cattle tick. Conditions: after 48 hours, read-out: activity (efficacy: larvae dead or moribund); for pest or weed control at 100 g/ha: application rate 1 pg/cm^2 (=100 g/ha); for pest or weed control at 500 g/ha: application rate 5 pg/cm^2 (=500 g/ha). In outline: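 Acetone solutions coated onto inner walls of glass tubes by rotation (900 ppm giving 5 μg/cm^2); after evaporation, 20-50 larvae added per tube and held at 27° C., 85% relative humidity. Efficacy read after 48 h from negative geotactic behaviour; 100% = all larvae dead or moribund.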

In assay [2] the test system is cattle ticks (Rhipicephalus microplus) strain Parkhurst, SP-resistant. Nature of the assay: Rhipicephalus (Boophilus) microplus dip test. Conditions: 168 h, application rate 100 ppm, egg deposition after 7 days, read-out: activity (efficacy: infertile eggs). How it is done: Rhipicephalus (Boophilus) microplus—Din Test
Test animal: cattle ticks (Rhipicephalus microplus) strain Parkhurst, SP-resistant
Solvent: dimethyl sulfoxide
To produce a suitable preparation of active compound, 10 mg of active compound are dissolved in 0.5 mL solvent, and the concentrate is diluted with water to the desired concentration.
This compound solution is pipetted into tubes. 8-10 engorged, adult, female cattle ticks (Rhipicephalus microplus) are placed in perforated tubes. These tubes are immersed in the aqueous compound solution until the ticks are completely moistened. After the liquid has drained off, the ticks are transferred to a filter paper in a plastic tray and stored in a climate chamber.
After 7 days egg deposition of fertile eggs is monitored. Eggs where fertility is not visible are stored in a climate chamber till hatching after about 42 days. An efficacy of 100% means all eggs are infertile; 0% means all eggs are fertile.

Assay [3] deals with adult engorged female ticks (Rhipicephalus microplus). Nature of the assay: Rhipicephalus (Boophilus) microplus injection test. Conditions: 168 h, egg deposition after 7 days, read-out: activity (efficacy: infertile eggs); for pest or weed control at 4 pg: application rate 4 pg/animal; for pest or weed control at 0.02 mg: application rate 20 μg/animal. A digest of the protocol: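 Five adult engorged female ticks injected into the abdomen with 1 μL compound solution in DMSO, then held in a climate chamber. Fertile egg deposition assessed after 7 days, unclear eggs kept until hatching (about 42 days); efficacy 100% = all eggs infertile, 0% = all fertile.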

In assay [4] the test system is adult unfed cat fleas (Ctenocephalides felis). Briefly: Ctenocephalides felis oral test. Conditions: 48 h, read-out: activity (mortality). A digest of the protocol: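 About 20 adult unfed fleas fed through parafilm on cattle blood containing compound (DMSO stock diluted in blood), blood held at 37 °C and fleas at room temperature. Mortality (%) scored after 2 days.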

The subject of assay [5] is adult brown dog ticks (Rhipicephalus sanguineus). Nature of the assay: Rhipicephalus sanguineus in-vitro contact test, adult brown dog ticks. Conditions: after 48 hours, read-out: activity (efficacy: ticks dead or moribund); for pest or weed control at 100 g/ha: application rate 1 pg/cm^2 (=100 g/ha); for pest or weed control at 5 µg/cm2, 500 g/ha: application rate 5 μg/cm^2 (=500 g/ha). In outline:
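Acetone solution rolled onto tube walls, 2 h at 30 rpm; 900 ppm → 5 μg/cm^2. Solvent evaporated, 5-10 adults/tube, perforated lid, lying, RT. 48 h: heat plate 45-50° C ≤5 min; immotile/uncoordinated = dead/moribund. 100% = all dead/moribund.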

The test system of assay [6] is green peach aphid (Myzus persicae). Briefly: Myzus persicae oral test. Conditions: 120 h, application rate 4 ppm, after 5 days. A digest of the protocol:
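Acetone stock (1 pbw compound/100 pbw solvent) diluted in water; mixed with sugar-supplemented IPL41 medium; parafilm-sealed; mixed aphid population sucks through film; mortality % read at 5 d.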

Assay [7] relates to fall armyworm larvae (Spodoptera frugiperda). Nature of the assay: Spodoptera frugiperda spray test. Conditions: 168 h, read-out: activity (mortality). In outline:
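Compound in acetone/DMF, diluted in water with 1000 ppm alkylarylpolyglycol ether emulsifier, sprayed on maize leaf sections. Dried leaves infested with fall armyworm larvae; % mortality after 7 days (100% = all killed, 0% = none).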

In assay [8] the test system is Aedes aegypti strain MONHEIM. Nature of the assay: Aedes aegypti test (AEDSAE surface treatment & contact assay). Conditions: 24 hours after contact, read-out: efficacy (mortality); for mortality at 20 mg/m2: surface concentration 20 mg/m^2, exposure 30 minutes; for mortality at 4 mg/m2: surface concentration 4 mg/m^2, exposure 30 minutes. In outline:
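Compound in acetone (2 mg/ml) with 2000 ppm RME pipetted onto glazed tile and dried; adult Aedes aegypti MONHEIM exposed 30 min. Percent mortality scored 24 h after contact.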

The subject of assay [9] is Culex quinquefasciatus strain P00. Briefly: Culex quinquefasciatus test (CULXFA surface treatment & contact assay). Conditions: 24 hours after contact, read-out: efficacy (mortality). How it is done: Culex quinquefasciatus Test (CULXFA Surface Treatment & Contact Assay)
Solvent: Aceton+2000 ppm rapeseed oil methyl ester (RME)
In order to produce a sufficient, active ingredient containing solution it is necessary to solve the test compound in the solvent-mix (acetone at 2 mg/ml/RME 2 000 ppm). This solution is pipetted onto a glazed tile and after evaporation of the acetone, adult mosquitoes of the species Culex quinquefasciatus strain P00 are placed onto the dried surface. The exposure time is 30 minutes. Mortality in percent (%) is determined 24 hours after contact of the insects to the treated surface. 100% mortality means that all tested insects are dead, whereas 0% means that no insect died.

Assay [10] deals with adult cat fleas (Ctenocephalides felis). Nature of the assay: Ctenocephalides felis in-vitro contact test, adult cat flea. Conditions: application rate 5 μg/cm^2 (=500 g/ha), after 48 hours, read-out: activity (efficacy: fleas dead or moribund). A digest of the protocol:
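Acetone solutions of compound coated onto inner walls of glass tubes (900 ppm giving […]); after drying, 5-10 adult Ctenocephalides felis added and held at room temperature. At 48 h, fleas placed on a 45-50° C heating plate; those unable to climb away scored dead or moribund, expressed as % efficacy.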

The test system of assay [11] is southern root-knot nematode (Meloidogyne incognita). Briefly: Meloidogyne incognita test. Conditions: 336 h, application rate 20 ppm, after 14 days, read-out: nematicidal activity (based on gall formation). How it is done:
Meloidoyne incognita—Test
Solvent: 125.0 parts by weight of acetone
To produce a suitable preparation of active compound, 1 part by weight of active compound is mixed with the stated amount of solvent, and the concentrate is diluted with water to the desired concentration.
Vessels are filled with sand, a solution of the active ingredient, a suspension containing eggs and larvae of the southern root-knot nematode (Meloidogyne incognita) and salad seeds. The salad seeds germinate and the seedlings grow. Galls develop in the roots.
After 14 days the nematicidal activity is determined based on the percentage of gall formation. 100% means no galls were found and 0% means the number of galls found on the roots of the treated plants was equal to that in untreated control plants.

The subject of assay [12] is larvae of the southern green stink bug (Nezara viridula). Nature of the assay: Nezara viridula spray test. Conditions: 96 h, after 4 days; for mortality at 100 g/ha: application rate 100 g/ha; for mortality at 500 g/ha: application rate 500 g/ha. In outline:
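Compound in acetone/dimethylformamide, diluted in water with 1000 ppm alkylarylpolyglycol ether emulsifier, sprayed onto barley plants carrying stink bug larvae. Mortality (%) scored after 4 days, 100% meaning all insects killed.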

The subject of assay [13] is larvae of the banded cucumber beetle (Diabrotica balteata). Briefly: Diabrotica balteata spray test. Conditions: 168 h, after 7 days, read-out: activity (efficacy: seedlings grown); for pest or weed control at 100 g/ha: application rate 100 g/ha (=32 pg/well). A digest of the protocol:
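Wheat seedlings, germinated 1 day on agar (5 seeds/well), sprayed with active compound in acetone/DMF diluted in water containing 1000 ppm emulsifier, then infested with 10-20 D. balteata larvae. Efficacy (%) scored after 7 days: 100% = seedlings grown as untreated uninfested control, 0% = no seedlings grown.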

Assay [14] deals with two spotted spidermite (Tetranychus urticae). Briefly: Tetranychus urticae spray test OP-resistant. Conditions: 144 h, application rate 100 g/ha, after 6 days. How it is done: Tetranychus urticae—Spray Test OP-Resistant
Solvent: 78.0 parts by weight acetone • 1.5 parts by weight dimethylformamide
Emulsifier: alkylarylpolyglycol ether
To produce a suitable preparation of active compound, 1 part by weight of active compound is mixed with the stated amount of solvents and is diluted with water, containing an emulsifier concentration of 1000 ppm, to the desired concentration. Further test concentrations are prepared by dilution with emulsifier containing water.
French bean (Phaseolus vulgaris) leaf disks infected with all instars of the two spotted spidermite (Tetranychus urticae), are sprayed with a preparation of the active ingredient of the desired concentration.
After 6 days mortality in % is determined. 100% means all spider mites have been killed and 0% means none of the spider mites have been killed.

Assay [15] deals with green peach aphid (Myzus persicae). Nature of the assay: Myzus persicae spray test. Conditions: 120 h, application rate 100 g/ha, after 5 days. In outline: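 Chinese cabbage leaf disks carrying all instars of M. persicae sprayed with compound in acetone/DMF, diluted in water with 1000 ppm alkylarylpolyglycol ether emulsifier. Percent mortality scored after 5 days (100% = all aphids killed).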

Turning to `C[C@H](NC(=O)c1cc(C(F)(F)F)cc(S(=O)(=O)C2CC2)c1)c1nc(C2CC2)nn1-c1ccc(C#N)cn1` [I-15], in assay [1], the pest or weed control at 100 g/ha amounted to 100% and the pest or weed control at 500 g/ha was determined as 100%. Moreover, the pest or weed control at 100 ppm in [2] was found to be 80%. In addition, in assay [3], the pest or weed control at 4 pg came to 100% and the pest or weed control at 0.02 mg was found to be 100%. In [4], the mortality at 100 ppm was determined as 100%. In assay [5], the pest or weed control at 100 g/ha was 100% and the pest or weed control at 5 µg/cm2, 500 g/ha was 100%. The same compound yielded a mortality at 4 ppm in [6] of 100%. The mortality at 100 g/ha in assay [7] turned out to be 100%. In [8], the mortality at 20 mg/m2 lay in the range of 80 to 100%. For the same compound, in assay [9] (surface concentration 4 mg/m^2, exposure 30 minutes), the mortality at 4 mg/m2 is 80 to 100%.
Consider `CCS(=O)(=O)c1cc(Cl)cc(C(=O)N[C@@H](C)c2ncnn2-c2ccc(C#N)cn2)c1` [II-20], for which, in assay [1], the pest or weed control at 100 g/ha is 100% and the pest or weed control at 500 g/ha amounted to 100%. Besides, in assay [3], the pest or weed control at 4 pg is 100% and the pest or weed control at 0.02 mg was 100%. For the same compound, the pest or weed control at 5 µg/cm2 in [10] is 100%. In addition, the pest or weed control at 20 ppm in assay [11] was determined as 90%. Further, in assay [6], the mortality at 4 ppm worked out at 100%. In assay [12], this compound gave a mortality at 100 g/ha of 100% and a mortality at 500 g/ha of 100%. Moreover, in assay [7], the mortality at 100 g/ha was determined as 83% and the mortality at 500 g/ha is 100%. Also, in assay [8], the mortality at 4 mg/m2 lay in the range of 80 to 100% and the mortality at 20 mg/m2 lay within 80 to 100%. Further, the mortality at 20 mg/m2 in [9] (surface concentration 20 mg/m^2, exposure 30 minutes) lay within 80 to 100%.
On to `C[C@H](NC(=O)c1cc(C(F)F)cc(C2CC2)c1)c1ncnn1-c1ccc(C#N)cn1` [II-60], for which the pest or weed control at 100 g/ha in assay [1], in [5] and in [13] was 100% throughout. Further, the pest or weed control at 500 g/ha in [1] worked out at 100%. In [3], the pest or weed control at 4 pg was determined as 100%. In addition, the pest or weed control at 5 µg/cm2 in assay [10] amounted to 100%. In addition, the mortality at 100 ppm in [4] was 90%. Further, in [5], the pest or weed control at 5 µg/cm2, 500 g/ha worked out at 100%. Also, in assay [11], the pest or weed control at 20 ppm was 90%. Besides, the mortality at 4 ppm in assay [6] is 100%. For the same compound, the mortality at 100 g/ha in assay [12] turned out to be 90%; in assay [7], 100%.
For `CCS(=O)(=O)c1cc(C(=O)N[C@@H](C)c2ncnn2-c2ccc(C#N)cn2)cc(C(F)(F)F)c1` [II-33], the pest or weed control at 100 g/ha in [1] is 100%; in [5] it was 80%; in assay [13], 100%. In addition, the pest or weed control at 500 g/ha in assay [1] and in [13] (application rate 500 g/ha (=160 pg/well)) was 100% in each case. In assay [3], the pest or weed control at 4 pg turned out to be 100%. Moreover, the pest or weed control at 0.02 mg in [3] was 100%. Moreover, the mortality at 100 ppm in [4] was 100%. Besides, in [6], the mortality at 4 ppm was 100%. For the same compound, the mortality at 100 g/ha is 100% in assay [12], 100% in assay [7] and 90% in [14]. Besides, the mortality at 500 g/ha is 100% in assay [12] and 83% in [7]. In addition, the mortality at 4 mg/m2 in [8] is 80 to 100%. Moreover, the mortality at 20 mg/m2 in assay [8] lay in the range of 80 to 100%.
`Cc1nc([C@H](C)NC(=O)c2cc(OC(F)F)cc(C3CC3)c2)n(-c2ccc(C#N)cn2)n1` [II-63]: the pest or weed control at 100 g/ha in assay [1], in assay [5] and in assay [13] was 100% throughout. Further, the pest or weed control at 500 g/ha in [1] was 100%. In addition, the pest or weed control at 4 pg in assay [3] came to 100%. In addition, the pest or weed control at 5 µg/cm2 in [10] came to 100%. Besides, in [5], the pest or weed control at 5 µg/cm2, 500 g/ha was 100%. Besides, in assay [11], the pest or weed control at 20 ppm was determined as 90%. In assay [6], the mortality at 4 ppm was determined as 100%. Also, the mortality at 100 g/ha in [15] and in assay [7] was 100% throughout.
